From US7868013B2, “Cycloalkyl substituted pyrimidinediamine compounds and their uses” (Rigel Pharmaceuticals, Inc., priority 2004, dated 2011) come the findings set out here.

The test system of experiment [1] is DU145 (prostate carcinoma). The experiment can be described thus: In vitro antiproliferation assay, DU145 cells. Type of experiment: cell-based. As to conditions: Homo sapiens, DU-145; DU145; read-out: In Vitro IC50. The protocol:
(§1) Cis racemic Compound 15, (1S,2R) enantiomeric Compound 15a and […] enantiomeric Compound 15b were also tested against DU145 (prostate carcinoma), HCT116 (colorectal carcinoma) and MiaPaCa-2 (pancreatic carcinoma) cell lines.
(§2) Certain compounds were tested against other cell types for their ability to inhibit proliferation in standard antiproliferation assays.

In experiment [2] the test system is TOV-21G (ovarian clear cell carcinoma). The experiment can be described thus: In vitro antiproliferation assay, TOV-21G cells. Type of experiment: cell-based. As to conditions: Homo sapiens, TOV21G; TOV-G21. The protocol: as §2
In experiment [3] the test system is MiaPaCa-2 (pancreatic carcinoma). Briefly: In vitro antiproliferation assay, MiaPaCa-2 cells. The experiment is classed as cell-based. As to conditions: Homo sapiens, MIA PaCa-2; Miapaca2; read-out: In Vitro IC50. As to the method: as §1, §2
Experiment [4] deals with ASPC-1 (pancreatic adenocarcinoma). The experiment can be described thus: In vitro antiproliferation assay, ASPC-1 cells. Type of experiment: cell-based. The conditions noted are these: Homo sapiens, ASPC1. The protocol: as §2
The test system of experiment [5] is MOLT3 (T lymphoblast acute lymphoblastic leukemia). Briefly: In vitro antiproliferation assay, MOLT3 cells. Type of experiment: cell-based. The conditions noted are these: Homo sapiens, MOLT-3. As to the method: as §2
For experiment [6], the system named is MOLT4 (T lymphoblast acute lymphoblastic leukemia). The experiment can be described thus: In vitro antiproliferation assay, MOLT4 cells. The experiment is classed as cell-based. As to conditions: Homo sapiens, MOLT-4. As to the method: as §2
The test system of experiment [7] is L1210 (mouse lymphocytic leukemia). The experiment can be described thus: In vitro antiproliferation assay, L1210 cells. Type of experiment: cell-based. As to conditions: Mus musculus. The protocol: as §2
For experiment [8], the system named is HL160 (promyeloblast promyelocytic leukemia). The experiment can be described thus: In vitro antiproliferation assay, HL160 cells. Type of experiment: cell-based. The protocol: as §2
The subject of experiment [9] is SK-OV-3 (ovarian adenocarcinoma). Briefly: In vitro antiproliferation assay, SK-OV-3 cells. Type of experiment: cell-based. The conditions noted are these: Homo sapiens, SKOV3. The protocol:
as §2

In a further experiment the test system is U2OS (bone osteosarcoma). The experiment can be described thus: In vitro antiproliferation assay, U2OS cells. As to conditions: Homo sapiens, U2OS; U20S. Type of experiment: cell-based. The protocol:
as §2

The test system of experiment [10] is THP-1 (monocyte acute monocytic leukemia). The experiment can be described thus: In vitro antiproliferation assay, THP-1 cells. Type of experiment: cell-based. The conditions noted are these: Homo sapiens. As to the method: as §2
Experiment [11] relates to U937 (histiocytic lymphoma). Briefly: In vitro antiproliferation assay, U937 cells. As to conditions: Homo sapiens, U-937. Type of experiment: cell-based. As to the method: as §2
The subject of experiment [12] is BXPC-3 (pabcreatic adenocarcinoma). The experiment can be described thus: In vitro antiproliferation assay, BXPC-3 cells. The experiment is classed as cell-based. As to conditions: Homo sapiens. The protocol:
as §2

The test system of a further experiment is A549 (lung carcinoma). The experiment can be described thus: In vitro antiproliferation assay, A549 cells (TABLE 1 6 point assay; TABLE 2). The conditions noted are these: Homo sapiens. Type of experiment: cell-based. The protocol:
as §2

The next experiment concerns H7299. The experiment can be described thus: In vitro antiproliferation assay, H7299 cells. The experiment is classed as cell-based. The protocol: as §2
Experiment [13] has as its system H1299 (non-small cell lung carcinoma). The experiment can be described thus: In vitro antiproliferation assay, H1299 cells (TABLE 1 6 point assay; TABLE 2). The experiment is classed as cell-based. As to conditions: Homo sapiens. The protocol:
as §2

Experiment [14] deals with K562 (bone marrow chronic myelogenous leukemia). The experiment can be described thus: In vitro antiproliferation assay, K562 cells. The experiment is classed as cell-based. As to conditions: Homo sapiens. The protocol: as §2
The target of another experiment is T1, Aurora kinase-B (Homo sapiens, UniProt Q96GD4).
T1 construct: endogenous in cells; host or cells: A549 cells
T1 sequence (Q96GD4 whole entry): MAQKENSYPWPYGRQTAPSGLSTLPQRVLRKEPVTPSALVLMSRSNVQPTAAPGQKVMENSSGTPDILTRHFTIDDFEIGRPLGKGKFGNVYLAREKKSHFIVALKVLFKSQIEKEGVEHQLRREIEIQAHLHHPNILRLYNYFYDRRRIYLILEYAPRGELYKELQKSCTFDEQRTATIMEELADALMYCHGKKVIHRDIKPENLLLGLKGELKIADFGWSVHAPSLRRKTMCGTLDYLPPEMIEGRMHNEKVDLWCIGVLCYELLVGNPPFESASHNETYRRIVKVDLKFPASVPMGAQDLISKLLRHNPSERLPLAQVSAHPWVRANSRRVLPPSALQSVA
The experiment can be described thus: Functional cellular assay of Aurora kinase-B: phosphorylation of histone H3 in A549 cells. The experiment is classed as cell-based. The conditions noted are these: A549 cells, phospho-histone H3; read-out: IC50 of Aurora kinase-B inhibition. As to the method:
Enantiomers E1 and E2 (Compounds 60a and 60b, respectively) were tested for their ability to inhibit Aurora kinase-B in a functional cellular assay involving phosphorylation of its substrate, histone H3. For the assay, A549 cells were seeded into the wells of a microtiter tray (5000 cells/well in 100 μl F12K media) late in the afternoon on Day 1. The cells were grown overnight (37° C., 5% CO2) On Day 2, 50 μl nocodazole (1 μM in media) was added to each well, giving a final concentration of 333 nM. Cells were grown for an additional 18 hrs under the same conditions.
On Day 3, 50 μl aliguots of varying concentrations of test compound were added to the wells Test compounds were prepared by 2-fold serial dilution of a […] stock (in DMSO). The diluted compounds in DMSO were then further diluted 1:50 with media to yield a final solution containing 4× test compound, 98% media, 2% DMSO. After incubation, the media/test compound was washed and the cells fixed with 2% paraformaldehyde (in Dulbecco's phosphate buffered saline “DPBS”; 25 μl per well; […] incubation). […] The cells were then stained with a secondary antibody labeled with a fluorescent dye (secondary antibody donkey anti-mouse AlexFluor 488 (Invitrogen Molecular Probes; 1:2000) and DAPI (1:15,000 of 1 mg/ml stock) for 1 hr at room temperature, washed three times with DPBS (200 μl/well) and stored under DPBS (100 μl/well) at 4° C. until ready for analysis.
A Zeiss Axiovert S100 inverted fluorescent microscope with a Plan-NEOFLUAR 10× objective, a Hamamatsu Lightningcure 200 Mercury-Xenon light source and an Omega Optical XF57 quad filter was used for all data collection. […] Images were captured and analyzed in 12-bit format using segmentation and morphological routines contained in the Image Pro software package. Identified nuclei were counted and pixel data for each cell along with experimental conditions was stored in a database using MySQL 4.0.14. […]
For phospho-histone H3 analysis the data is converted to Facs files and analysed using FlowJo. […]

The subject of experiment [15] is CaOV-3 (ovarian adenocarcinoma). The experiment can be described thus: In vitro antiproliferation assay, CaOV-3 cells. As to conditions: Homo sapiens. Type of experiment: cell-based. As to the method: as §2
Experiment [16] deals with COLO 205 (colorectal adenocarcinoma). Briefly: In vitro antiproliferation assay, COLO 205 cells. Type of experiment: cell-based. As to conditions: Homo sapiens, COLO 205; Colo205. The protocol:
as §2

Experiment [17] has as its system SW620 (colorectal adenocarcinoma). The experiment can be described thus: In vitro antiproliferation assay, SW620 cells. Type of experiment: cell-based. The conditions noted are these: Homo sapiens, SW-620. As to the method: as §2
The test system of experiment [18] is HELA (cervical adenocarcinoma). Briefly: In vitro antiproliferation assay, HELA cells. Type of experiment: cell-based. As to conditions: Homo sapiens, HeLa. As to the method: as §2
Experiment [19] deals with PC3 (prostate adenocarcinoma). The experiment can be described thus: In vitro antiproliferation assay, PC3 cells. The experiment is classed as cell-based. As to conditions: Homo sapiens, PC-3. The protocol: as §2
Experiment [20] deals with H1155 (non-small cell lung carcinoma). The experiment can be described thus: In vitro antiproliferation assay, H1155 cells. Type of experiment: cell-based. As to conditions: Homo sapiens, NCI-H1155. As to the method:
as §2

For experiment [21], the system named is SU86.86 (pancreatic carcinoma). The experiment can be described thus: In vitro antiproliferation assay, SU86.86 cells. The experiment is classed as cell-based. As to conditions: Homo sapiens, SU.86.86. The protocol:
as §2

Experiment [22] concerns Colo205 tumors. Briefly: Xenograft treatment model, Colo205 tumors. The conditions noted are these: daily and pulsed dosing regimens, all dosage levels tested. The experiment is classed as in vivo, SCID mice.
Description: (§3) When palpable tumors appeared and were of a preselected volume (approx. 100 mm3 for treatment model; >300 mm3 for regression model), the mice were administered test compounds in the amounts and according to the dosing regimens specified in TABLE 3 (treatment protocol) and TABLE 4 (regression protocol), below.
A further experiment has as its system A549 tumors. Briefly: Xenograft treatment model, A549 tumors. As to conditions: 5 days on/2 days off, 10 mg/kg qd, p>0.05. The experiment is classed as in vivo, SCID mice.
Experiment [23] relates to Colo205 tumors. Briefly: Xenograft regression model, Colo205 tumors. The experiment is classed as in vivo, SCID mice. The conditions noted are these: 10 mg/kg/day oral.
Description: as §3
The subject of a further experiment is MiaPaCa tumors. Briefly: Xenograft regression model, MiaPaCa tumors. The experiment is classed as in vivo, SCID mice. As to conditions: 10 mg/kg/day oral or i.p., similar to taxol.
Experiment [24] has as its system H460 (large cell lung carcinoma). Briefly: In vitro antiproliferation assay, H460 cells. The experiment is classed as cell-based. As to conditions: Homo sapiens, NCI-H460. As to the method: as §2
Where [25] appears, read: A549, 6 point assay, A549 cells, read-out: IC50, A549 cells.
[26] abbreviates: A549, A549, read-out: In Vitro IC50.
Setting [27] is: NCI-H1299, 6 point assay, H1299 cells, read-out: IC50, H1299 cells.
[28] abbreviates: NCI-H1299, H1299, read-out: In Vitro IC50.

The structures appear in SMILES notation. Where a name gives a salt, the structure may show the parent alone. Read-outs that look alike come from different tables or passages of the source.

Description for A549 tumors: as §3
Description for MiaPaCa tumors: as §3

Turning to `Cc1cc(Nc2ncc(F)c(N[C@H]3[C@@H](C(N)=O)[C@@H]4C=C[C@H]3C4)n2)ccc1N1CCN(C)CC1` (single isomer, unassigned) [Compound 60a], the half-inhibitory concentration (IC50) in [1] was at most 20 nM; in experiment [2] it was at most 10 nM; in experiment [3], at most 10 nM; in [4], at most 10 nM; in experiment [5] it was at most 10 nM; in [6], at most 10 nM. Moreover, the half-inhibitory concentration (IC50) in [7] was at most 20 nM; in experiment [8], at most 10 nM; in experiment [9], at most 20 nM; with U2OS (bone osteosarcoma), at most 10 nM; in [10] it was at most 1000 nM; in experiment [11] it was at most 10 nM. The IC50 in experiment [12] was at most 10 nM; in the experiment with A549 (lung carcinoma) (setting [25]), at most 100 nM; with A549 (lung carcinoma) (setting [26]), at most 10 nM; with H7299, at most 20 nM; in experiment [13] (setting [27]) it was at most 100 nM; in experiment [13] (setting [28]), at most 10 nM. Also, the IC50 is at most 1000 nM in [14]; about 7 nM on Aurora kinase-B; at most 10 nM in [15]; at most 10 nM in experiment [16]; at most 20 nM in [17]; at most 10 nM in experiment [18]. For the same compound, the IC50 is at most 10 nM in experiment [19], at most 10 nM in experiment [20] and at most 20 nM in experiment [21].
For `Cc1cc(Nc2ncc(F)c(N[C@H]3[C@@H](C(N)=O)[C@@H]4C=C[C@H]3C4)n2)ccc1N1CCN(C)CC1` [compound 234, (1R,2R,3S,4S)—N4-(3-Aminocarbonylbicyclo[2.2.1]hept-5-en-2-yl)-5-fluoro-N2-[3-methyl-4-(4-methylpiperazin-1-yl)phenyl]-2,4-pyrimidinediamine Hydrogen Chloride Salt], the half-inhibitory concentration (IC50) is at most 1000 nM in experiment [1]; at most 10 nM in [3]; at most 100 nM in the experiment with A549 (lung carcinoma) (setting [25]); at most 10 nM in the experiment with A549 (lung carcinoma) (setting [26]); at most 1000 nM with H7299; 100 to 1000 nM in experiment [13] (setting [27]). The concentration for half-maximal inhibition (IC50) in [13] (setting [28]) was at most 1000 nM; in [16] it was at most 10 nM; in [18], at most 10 nM; in experiment [24], at most 10 nM. Moreover, the “Reduction in tumor growth rate as compared to a vehicle control” value in the experiment on Colo205 tumors [22] is listed as “significant (p<0.050) reductions in tumor growth rate”. The “Reduction in mean tumor volume” value in the experiment on A549 tumors was about 40%. Besides, the “Reduction in tumor growth rate” value in the experiment on Colo205 tumors [23] and in the experiment on MiaPaCa tumors was “Significant reductions in tumor growth rate” throughout.

Usually IC50 stands for the point on the concentration scale where inhibition reaches its midpoint.
